# Experimental data published in US5384243A, “Method for screening an agent for its ability to prevent cell transformation” (priority 1992, dated 1995).
# Assays:
# [1] = biological target: T1, m2 mACHR (Homo sapiens, UniProt P08172)
# T1 sequence (P08172 1-466): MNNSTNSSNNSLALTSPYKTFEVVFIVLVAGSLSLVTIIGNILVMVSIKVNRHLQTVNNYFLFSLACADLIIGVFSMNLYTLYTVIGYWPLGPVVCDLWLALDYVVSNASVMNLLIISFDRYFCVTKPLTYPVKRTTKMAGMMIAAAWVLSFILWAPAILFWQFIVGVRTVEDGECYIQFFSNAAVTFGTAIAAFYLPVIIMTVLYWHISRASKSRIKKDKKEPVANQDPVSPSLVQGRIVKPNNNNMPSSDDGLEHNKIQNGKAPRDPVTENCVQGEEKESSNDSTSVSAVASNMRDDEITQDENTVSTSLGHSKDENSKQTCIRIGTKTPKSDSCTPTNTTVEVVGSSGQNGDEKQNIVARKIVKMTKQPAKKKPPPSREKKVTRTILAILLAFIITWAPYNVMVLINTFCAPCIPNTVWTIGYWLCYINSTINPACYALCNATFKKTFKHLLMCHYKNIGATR
# [2] = test system: NIH/3T3 cells; assay: [3H]NMS binding to membranes of vector (pDS, neo) transfectants
# [3] = test system: human muscarinic acetylcholine receptors; assay: Focus assay after transfection of NIH/3T3 cells, mACHR genes in general; type: cell-based; details: atropine 10 μM
# Source text: (§1) Transfection. […] Mass populations expressing the transfected neogene were selected for their ability to grow in the presence of geneticin (G418) (Gibco). Transformed foci were scored in stained plates of NIH/3T3 2-3 weeks after transfection. Individual G418 colonies or transformed foci were isolated with the aid of cloning cylinders, and maintained in Dulbecco's Modified Eagle Medium containing 10% calf serum.
# (§2) DNA Constructs. […] Analysis of Receptor Expression.
# (§3) Foci of transformation were scored after 2-3 weeks. The efficiency of transfection was determined by scoring neo resistant colonies in medium containing G418 (0.750 mg/ml). […] Results represent the average of three independent experiments.
# [4] = biological target: T2, m5 mACHR (Homo sapiens, UniProt P08912); assay: Focus assay after transfection of NIH/3T3 cells, pDS m5; type: cell-based; details: for Focus-forming activity: pDS m5
# T2 construct: carbachol-dependent focus formation
# T2 sequence (P08912 1-532): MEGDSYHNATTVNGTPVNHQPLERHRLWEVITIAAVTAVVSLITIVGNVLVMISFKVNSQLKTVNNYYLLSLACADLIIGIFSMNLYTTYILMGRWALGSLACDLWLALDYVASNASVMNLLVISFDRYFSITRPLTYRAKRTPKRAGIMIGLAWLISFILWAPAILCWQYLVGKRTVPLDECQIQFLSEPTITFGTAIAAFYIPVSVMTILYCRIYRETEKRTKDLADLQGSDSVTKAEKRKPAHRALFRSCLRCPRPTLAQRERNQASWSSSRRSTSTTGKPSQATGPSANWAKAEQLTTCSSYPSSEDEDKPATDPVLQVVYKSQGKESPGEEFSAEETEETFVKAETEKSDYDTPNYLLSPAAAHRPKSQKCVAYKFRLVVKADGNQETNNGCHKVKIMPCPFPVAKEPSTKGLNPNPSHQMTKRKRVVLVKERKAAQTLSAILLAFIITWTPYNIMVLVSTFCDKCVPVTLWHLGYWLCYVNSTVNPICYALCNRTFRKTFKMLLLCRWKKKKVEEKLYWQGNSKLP
# Source text: as §1, §2, §3
# [5] = test system: NIH/3T3 cells; assay: Focus assay after transfection of NIH/3T3 cells, pDS vector; type: cell-based, murine
# Source text: as §1, §2, §3
# [6] = test system: NIH/3T3 cells; assay: PI hydrolysis in neo NIH/3T3 cells; type: cell-based, murine; details: Mus musculus, NIH3T3, 1 h, binding 0, read-out: PI Hydrolysis Maximal activation
# Source text: Phosphatidylinositol Hydrolysis.
# EC50, half maximal concentration.
# [7] = test system: m1, m2, m3 or m4 mACHRs; assay: cAMP assay without forskolin; details: 1 mM carbachol, 10 min
# [8] = test system: NIH/3T3 cells; details: neo, binding 0
# [9] = biological target: T1, m2 mACHR; assay: Focus assay after transfection of NIH/3T3 cells, pDS m2; type: cell-based; set-up: expressed in transfected cells; host or cells: NIH/3T3 murine fibroblasts (plasmid pDS m2); details: for Focus-forming activity: pDS m2
# Source text: as §1, §2, §3
# [10] = biological target: T3, m4 mACHR (Homo sapiens, UniProt P08173); assay: Focus assay after transfection of NIH/3T3 cells, pDS m4; type: cell-based; set-up: expressed in transfected cells; host or cells: NIH/3T3 murine fibroblasts (plasmid pDS m4); details: for Focus-forming activity: pDS m4
# T3 sequence (P08173 1-479): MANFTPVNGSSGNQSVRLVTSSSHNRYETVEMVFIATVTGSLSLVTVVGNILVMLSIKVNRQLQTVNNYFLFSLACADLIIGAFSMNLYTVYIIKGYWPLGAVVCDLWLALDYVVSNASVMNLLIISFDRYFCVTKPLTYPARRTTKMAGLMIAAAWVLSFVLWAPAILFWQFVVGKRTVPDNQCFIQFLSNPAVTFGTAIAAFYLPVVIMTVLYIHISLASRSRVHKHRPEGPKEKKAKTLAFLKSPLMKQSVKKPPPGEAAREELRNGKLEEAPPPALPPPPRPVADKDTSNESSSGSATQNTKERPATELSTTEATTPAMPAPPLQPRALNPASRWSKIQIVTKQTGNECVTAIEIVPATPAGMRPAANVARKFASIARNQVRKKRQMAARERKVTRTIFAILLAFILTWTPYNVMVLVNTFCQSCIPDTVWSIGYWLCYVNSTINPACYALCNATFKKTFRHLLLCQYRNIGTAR
# Source text: as §1, §2, §3
# [11] = biological target: T1, m2 mACHR; assay: cAMP assay, forskolin-stimulated, m2 clones; type: cell-based; set-up: expressed in transfected cells; host or cells: NIH/3T3 murine fibroblasts (plasmid pDS m2); details: 1 mM carbachol, m2 (FIG. 4)
# [12] = biological target: T3, m4 mACHR; assay: cAMP assay, forskolin-stimulated, m4 clones; type: cell-based; set-up: expressed in transfected cells; host or cells: NIH/3T3 murine fibroblasts (plasmid pDS m4); details: 1 mM carbachol, m4 (FIG. 4)
compound,measurement,setting,value
"C[N+]1(C)C2CC(OC(=O)C(CO)c3ccccc3)CC1C1OC12 (stereo not shown) [[^3 H]NMS, N-methylscopolamine]",Binding,[1]; G418 selected m2 clone (Table 3),308 fmoles [^3 H]NMS/mg protein
same,Binding [3H]NMS,"[1]; mass culture, pDS m2",90 fmoles [^3 H]NMS/mg protein
same,Binding [3H]NMS,"[2]; mass culture, pDS",< 1 fmoles [^3 H]NMS/mg protein
same,Binding,[2]; neo clone (Table 3),0 fmoles [^3 H]NMS/mg protein
CN1[C@@H]2CC[C@H]1C[C@@H](OC(=O)C(CO)c1ccccc1)C2 (stereo partly shown) [atropine],foci of transformation in cells maintained in atropine,[3],No foci of transformation were observed
same,carbachol induced focus-formation in presence of atropine,[3]; data not shown,abolished
C[N+](C)(C)CCOC(N)=O [carbachol],Focus-forming activity,[4]; carbachol 10^-4 M,47 per pmol DNA
same,Focus-forming activity,[4]; carbachol 10^-6 M,< 5 per pmol DNA
same,foci of transformation in presence of carbachol,[4]; m5 transfectants,foci of transformation readily appeared
same,Focus-forming activity,[5]; carbachol 10^-4 M,< 1 per pmol DNA
same,Focus-forming activity,[5]; carbachol 10^-6 M,< 1 per pmol DNA
same,Emax,[6],100%
same,cAMP accumulation without forskolin,[7],did not accumulate detectable cAMP
same,Transformation Maximal transportation,[8],0
same,Focus-forming activity,[9]; carbachol 10^-4 M,< 1 per pmol DNA
same,Focus-forming activity,[9]; carbachol 10^-6 M,< 1 per pmol DNA
same,foci of transformation in presence of carbachol,[9]; m2 transfected cultures,not m2 or m4
same,Focus-forming activity,[10]; carbachol 10^-4 M,< 1 per pmol DNA
same,Focus-forming activity,[10]; carbachol 10^-6 M,< 1 per pmol DNA
same,foci of transformation in presence of carbachol,[10]; m4 transfected cultures,not m2 or m4
same,cAMP levels in forskolin treated cells,[11],decreased
same,cAMP levels in forskolin treated cells,[12],decreased
